Consider 50 molecules from patent US8685981B2, “Cyclic compound having hetero atom” (Daiichi Sankyo Company, Limited, priority 2009, dated 2014).

The subject of the assay is ST2 cells, murine bone marrow-derived stromal cells. The experiment in a line: Osteoblast differentiation test (alkaline phosphatase activity). The format is cell-based. The conditions noted are these: Mus musculus, ST-2, 96 h, at 0.03 μg/mL, four days of culturing, control group (0.1% DMSO) set at 100%, read-out: increase (%) in alkaline phosphatase activity. Here is the method:
ST2 cells, murine bone marrow-derived stromal cells, (obtained from RIKEN) were used.
In this test, α-MEM media (obtained from GIBCO BRL Cat. No. 10370-021) containing 10% (v/v) of inactivated calf serum (obtained from Hyclone Laboratories, Inc.) and 1% (v/v) of Penicillin-Streptomycin Liquid (obtained from GIBCO BRL Cat. No. 15140-122) (hereinbelow, abbreviated as 10%-FBS-αMEM) were used. In this test, all culturing was performed in a CO2 incubator (37° C., 95% humidity, 5% CO2).
The aforementioned cells were detached with 2 mL of a 0.25% trypsin solution (obtained from GIBCO BRL Cat. No. 15050-065) and dispersed in 10 mL of 10%-FBS-αMEM. Subsequently, the cells were collected by centrifugation (25° C., 800 rpm, five minutes). Then, a cell suspension containing 40000 of the cells/mL of 10%-FBS-αMEM was prepared. The cell suspension was then dispensed into 96-well plates (the product of Falcon), 100 μL per well, at a density of 4000 cells/well, followed by culturing for 24 hours. To the wells except for the below-described well containing a control group, the compound was dispensed at final concentrations of 0.01, 0.03, 0.1, and 0.3 μg/ml. To the well of a control group, DMSO was dispensed at a final concentration of 0.1% (v/v). After four days of culturing, the activity of alkaline phosphatase (ALP) was measured in each group.
The measurement of ALP activity was performed as follows. That is, the medium in each well of the culture plates was completely removed. Each well was then washed by dispensing 100 μL of Dulbecco's phosphate buffer (obtained from GIBCO BRL Cat. No. 14190-144) and then removing it. A cell lysate solution containing 10 mM MgCl2 and 2% (v/v) TritonX-100 (Sigma) was prepared and dispensed at 50 μL/well, followed by stirring at room temperature for five minutes. An ALP substrate solution containing 50 mM diethanolamine (Wako pure chemical industries, Ltd., Cat. No. 099-03112) and 20 mM p-nitrophenyl phosphate (Wako pure chemical industries, Ltd., Cat. No. 147-02343) was prepared and dispensed at 50 μL/well, and the plates were left to stand at room temperature for 10 minutes. Subsequently, absorbance was measured by a microplate reader (Bio-Rad Laboratories, Inc.). Setting the measurement value of the control group of each plate at 100%, the increase (%) in alkaline phosphatase activity in the test compound-addition group was calculated, which was assessed as the degree of osteoblast differentiation.
`CCOCCOC1CCN(c2cncc3ccc(C(N)=O)nc23)CC1` [Example 2, 8-[4-(2-Ethoxyethoxy)piperidin-1-yl]-1,6-naphthyridine-2-carboxamide]: the activity at 0.03 µg/mL was ≥ 200%.

`NC(=O)c1ccc2cncc(N3CCCC(COC(F)F)C3)c2n1` (centres unmarked) [Example 104]: the activity at 0.03 µg/mL is ≥ 200%.

Consider `COCC1CCN(c2cncc3ccc(C(N)=O)cc23)C1` (centres unmarked) [Example 73], for which the activity at 0.03 µg/mL is ≥ 200%.

`NC(=O)c1ccc2cncc(N3CCC(OCC(=O)N4CCCC4)CC3)c2n1` [Example 113]: the activity at 0.03 µg/mL is ≥ 200%.

Consider `NC(=O)c1ccc2cncc(-n3cccc3)c2c1` [Example 34], for which the activity at 0.03 µg/mL is ≥ 200%.

In the case of `COC1CCN(c2cncc3ccc(C(N)=O)cc23)CC1` [Example 76], the activity at 0.03 µg/mL was ≥ 200%.

For `NC(=O)c1ccc2cncc(N3CCC(COCCOC4CCOCC4)CC3)c2n1` [Example 110], the activity at 0.03 µg/mL is ≥ 200%.

Consider `COCC1CCCN(c2cncc3ccc(C(N)=O)cc23)C1` (centres unmarked) [Example 17, 4-[3-(Methoxymethyl)piperidin-1-yl]isoquinoline-6-carboxamide], for which the activity at 0.03 µg/mL is ≥ 200%.

With `NC(=O)c1ccc2cncc(N3CCC(C4CCCCC4)CC3)c2c1` [Example 53], the activity at 0.03 µg/mL was ≥ 200%.

In the case of `NC(=O)c1ccc2cncc(N3CCN(C(=O)c4ccccc4)CC3)c2c1` [Example 78], the activity at 0.03 µg/mL is ≥ 200%.

As to `NC(=O)c1ccc2cncc(N3CCC(OCC(=O)N4CCOCC4)CC3)c2n1` [Example 100], the activity at 0.03 µg/mL was ≥ 200%.

As to `NC(=O)c1ccc2cncc(N3CCC(OCCOCC4CCOC4)CC3)c2n1` (centres unmarked) [Example 5, 8-{4-[2-(Tetrahydrofuran-3-ylmethoxy)ethoxy]piperidin-1-yl}-1,6-naphthyridine-2-carboxamide], the activity at 0.03 µg/mL was ≥ 200%.

With `NC(=O)c1ccc2cncc(N3CCC(OCCS(=O)(=O)N4CCOCC4)CC3)c2c1` [Example 97], the activity at 0.03 µg/mL is ≥ 200%.

For the molecule `CC(=O)C1(c2ccccc2)CCN(c2cncc3ccc(C(N)=O)cc23)CC1` [Example 46], the activity at 0.03 µg/mL was ≥ 200%.

With `CN(C)C(=O)N1CCN(c2cncc3ccc(C(N)=O)cc23)CC1` [Example 99], the activity at 0.03 µg/mL is ≥ 200%.

With `NC(=O)c1ccc2cncc(N3CCC(O)CC3)c2c1` [Example 89], the activity at 0.03 µg/mL is ≥ 200%.

`NC(=O)c1ccc2cncc(N3CCC(OCC4CCCO4)CC3)c2c1` (centres unmarked) [Example 68]: the activity at 0.03 µg/mL was ≥ 200%.

`CC(=O)c1ccn(-c2cncc3ccc(C(N)=O)cc23)c1` [Example 48]: the activity at 0.03 µg/mL was ≥ 200%.

With `NC(=O)c1ccc2cncc(N3CC=C(c4ccccc4)CC3)c2c1` [Example 24, 4-(4-Phenyl-3,6-dihydropyridine-1(2H)-yl)isoquinoline-6-carboxamide], the activity at 0.03 µg/mL is ≥ 200%.

`CCN(C)C(=O)COC1CCN(c2cncc3ccc(C(N)=O)nc23)CC1` [Example 116]: the activity at 0.03 µg/mL is ≥ 200%.

Turning to `NC(=O)c1ccc2cncc(N3CCN(c4ccc([N+](=O)[O-])cc4)CC3)c2c1` [Example 57], the activity at 0.03 µg/mL was ≥ 200%.

Take `COC[C@H]1CCCN(c2cncc3ccc(C(N)=O)cc23)C1` [Example 39]: the activity at 0.03 µg/mL was ≥ 200%.

With `CC(C)(C)OC(=O)NCCOCC1CCCN(c2cncc3ccc(C(N)=O)cc23)C1` (centres unmarked) [Example 21, Tert-butyl (2-{[1-(6-carbamoylisoquinolin-4-yl)piperidin-3-yl]methoxy}ethyl)carbamate], the activity at 0.03 µg/mL is ≥ 200%.

Consider `CN(C)C(=O)C1CCN(c2cncc3ccc(C(N)=O)cc23)CC1` [Example 74], for which the activity at 0.03 µg/mL is ≥ 200%.

On to `CCOC1CCCN(c2cncc3ccc(C(N)=O)cc23)C1` (centres unmarked) [Example 38], for which the activity at 0.03 µg/mL is ≥ 200%.

With `NC(=O)c1ccc2cncc(N3CCC(OCCOC4CC4)CC3)c2c1` [Example 87], the activity at 0.03 µg/mL is ≥ 200%.

For the molecule `NC(=O)c1ccc2cncc(N3CCN(C(=O)N4CCCC4)CC3)c2n1` [Example 114], the activity at 0.03 µg/mL was ≥ 200%.

Consider `NC(=O)c1ccc2cncc(N3CCC(CCOC4CCOCC4)CC3)c2c1` [Example 71], for which the activity at 0.03 µg/mL was ≥ 200%.

On to `NC(=O)c1ccc2cncc(N3CCCCC3)c2c1` [Example 16, 4-(Piperidin-1-yl)isoquinoline-6-carboxamide], for which the activity at 0.03 µg/mL was ≥ 200%.

Take `NC(=O)c1ccc2cncc(N3CCCC(COC(F)F)C3)c2c1` (centres unmarked) [Example 103]: the activity at 0.03 µg/mL is ≥ 200%.

In the case of `NC(=O)c1ccc2cncc(N3CCCN(c4ccccc4)CC3)c2c1` [Example 63], the activity at 0.03 µg/mL was ≥ 200%.

On to `NC(=O)c1ccc2cncc(N3CCC(COC4CCCCO4)CC3)c2c1` (centres unmarked) [Example 52], for which the activity at 0.03 µg/mL is ≥ 200%.

Take `COCC1CN(c2cncc3ccc(C(N)=O)cc23)CCC1OC` (centres unmarked) [Example 109]: the activity at 0.03 µg/mL was ≥ 200%.

As for `NC(=O)c1ccc2cncc(N3CCC(OCCS(=O)(=O)N4CCOCC4)CC3)c2n1` [Example 92], the activity at 0.03 µg/mL is ≥ 200%.

As to `NC(=O)c1ccc2cncc(N3CCC(OCC(=O)N4CCOCC4)CC3)c2c1` [Example 93], the activity at 0.03 µg/mL is ≥ 200%.

Regarding `COCC1CCN(c2cncc3ccc(C(N)=O)cc23)CC1` [Example 37], the activity at 0.03 µg/mL was ≥ 200%.

As for `NC(=O)c1ccc2cncc(N3CCC(F)(F)CC3)c2c1` [Example 43], the activity at 0.03 µg/mL was ≥ 200%.

`NC(=O)c1ccc2cncc(N3CCc4ccccc4C3)c2c1` [Example 59]: the activity at 0.03 µg/mL was ≥ 200%.

On to `NC(=O)c1ccc2cncc(N3CCC(c4ccccc4)CC3)c2c1` [Example 42], for which the activity at 0.03 µg/mL is ≥ 200%.

On to `NC(=O)c1ccc2cncc(N3CCC(OCCO)CC3)c2c1` [Example 20, 4-[4-(2-Hydroxyethoxy)piperidin-1-yl]isoquinoline-6-carboxamide], for which the activity at 0.03 µg/mL is ≥ 200%.

Regarding `NC(=O)c1ccc2cncc(N3CCC(OCCOC4CCOCC4)CC3)c2c1` [Example 81], the activity at 0.03 µg/mL is ≥ 200%.

With `NC(=O)c1ccc2cncc(N3CCN(c4cccc(F)c4)CC3)c2n1` [Example 32], the activity at 0.03 µg/mL was ≥ 200%.

Turning to `CC1CCN(c2cncc3ccc(C(N)=O)cc23)CC1` [Example 47], the activity at 0.03 µg/mL is ≥ 200%.

For `COCC1CN(c2cncc3ccc(C(N)=O)nc23)CCC1OC` (centres unmarked) [Example 108], the activity at 0.03 µg/mL is ≥ 200%.

`NC(=O)c1ccc2cncc(N3CCC(C(=O)c4ccc(F)cc4)CC3)c2c1` [Example 70]: the activity at 0.03 µg/mL was ≥ 200%.

On to `NC(=O)c1ccc2cncc(N3CCCC3)c2c1` [Example 36], for which the activity at 0.03 µg/mL is ≥ 200%.

On to `NC(=O)c1ccc2cncc(N3CCC(O)(c4ccccc4)CC3)c2c1` [Example 23, 4-(4-Hydroxy-4-phenylpiperidin-1-yl)isoquinoline-6-carboxamide], for which the activity at 0.03 µg/mL is ≥ 200%.

Take `COCC1CN(c2cncc3ccc(C(N)=O)cc23)CCN1c1ccccc1` (centres unmarked) [Example 84]: the activity at 0.03 µg/mL is ≥ 200%.

As for `CN(CCOC1CCN(c2cncc3ccc(C(N)=O)nc23)CC1)S(C)(=O)=O` [Example 9, 8-(4-{2-[Methyl(methylsulfonyl)amino]ethoxy}piperidin-1-yl)-1,6-naphthyridine-2-carboxamide], the activity at 0.03 µg/mL was ≥ 200%.

`COCCOC1CCN(c2cncc3ccc(C(N)=O)nc23)CC1` [Example 1, 8-[4-(2-Methoxyethoxy)piperidin-1-yl]-1,6-naphthyridine-2-carboxamide]: the activity at 0.03 µg/mL was ≥ 200%.
